Measurements from patent US9815851B2, “Pyrrolo carboxamides as modulators of orphan nuclear receptor RAR-related orphan receptor-gamma (RORγ, NR1F3) activity and for the treatment of chronic inflammatory and autoimmune diseases” (PHENEX PHARMACEUTICALS AG, priority 2011, dated 2017).
Read-outs that look alike come from different tables or passages of the source.

Tests used:
[1] = molecular target: T1, RORγ ligand binding domain (LBD) (Homo sapiens, UniProt P51449); assay: TR-FRET Activity Assay (ligand sensing, RORγ-LBD / coactivator peptide interaction, LANCE); type: biochemical
T1 construct: made in house; host or cells: E. coli BL-21 (BL3), vector pDEST15
T1 sequence (P51449 269-508 limits assumed): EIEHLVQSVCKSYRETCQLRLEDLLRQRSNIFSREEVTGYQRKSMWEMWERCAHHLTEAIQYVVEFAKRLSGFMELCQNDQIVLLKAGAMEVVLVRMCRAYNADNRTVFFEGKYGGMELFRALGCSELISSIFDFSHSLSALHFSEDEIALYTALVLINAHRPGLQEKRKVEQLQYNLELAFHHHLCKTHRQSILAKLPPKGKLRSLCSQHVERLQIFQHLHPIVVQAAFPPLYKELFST

RORγ = molecular target: T2, RORγ (UniProt P51449); assay: RORγ Gal4 Reporter Gene Assay in 293T cells (firefly and renilla luciferase); type: cell-based, human
T2 sequence (P51449 1-518): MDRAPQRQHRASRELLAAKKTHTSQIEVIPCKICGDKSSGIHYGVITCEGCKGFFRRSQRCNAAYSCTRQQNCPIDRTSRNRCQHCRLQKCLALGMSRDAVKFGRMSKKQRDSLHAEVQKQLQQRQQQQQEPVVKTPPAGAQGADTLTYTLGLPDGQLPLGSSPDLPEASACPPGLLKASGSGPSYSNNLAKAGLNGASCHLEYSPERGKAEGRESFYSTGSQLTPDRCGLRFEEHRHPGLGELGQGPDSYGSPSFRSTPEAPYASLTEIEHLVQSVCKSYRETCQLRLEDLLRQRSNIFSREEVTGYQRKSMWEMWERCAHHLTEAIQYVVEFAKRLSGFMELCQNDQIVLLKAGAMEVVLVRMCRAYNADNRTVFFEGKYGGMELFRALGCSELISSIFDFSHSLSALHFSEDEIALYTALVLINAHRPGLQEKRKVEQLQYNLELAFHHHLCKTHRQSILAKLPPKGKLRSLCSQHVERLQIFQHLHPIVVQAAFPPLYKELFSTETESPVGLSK

[2] = first value of the cell FRET/FF/REN, TR-FRET activity assay, read-out: pIC50 (FRET) (converted)
[3] = second value of the cell, Gal4 reporter gene assay in 293T cells, firefly luciferase
[4] = third value of the cell, Gal4 reporter gene assay in 293T cells, renilla normalised luciferase

Compound | IC50 [1, 2] [nM] | pIC50 (FF) (RORγ; [3]) | pIC50 (REN) (RORγ; [4]) | IC50 [1] [nM] | pIC50 (FF) (RORγ) | pIC50 (REN) (RORγ)
Cc1c(C(=O)NCC(C)(C)O)cc(-c2ccc(S(=O)(=O)NC(C)(C)C)c3ccccc23)n1CC1CCC(F)(F)CC1 [17/278] | 2510 | 7.0 | 7.0 |  |  | 
Cc1c(C(=O)NC2CCOCC2)cc(-c2ccc(S(=O)(=O)NC(C)(C)C)c3c2CCCC3)n1CC1CCCCC1 [17/280] | 1000 | 8.1 | 8.1 |  |  | 
Cc1c(C(=O)NC2CCOCC2)cc(-c2ccc(S(=O)(=O)NC(C)(C)C)c3cccnc23)n1CC1CCCCC1 [17/282] | 2000 | 6.6 | 6.7 |  |  | 
Cc1c(C(=O)NC2CCOCC2)cc(-c2ccc(S(=O)(=O)NC(C)(C)C)c3ncccc23)n1CC1CCCCC1 [17/283] | 1000 | 6.7 | 6.8 |  |  | 
Cc1c(S(=O)(=O)NC(C)(C)C)ccc(-c2cc(C(=O)NCCC(C)(C)C(=O)O)c(C)n2CC2CCCCC2)c1OC(F)F [17/284] | 1260 | 7.3 | 7.3 |  |  | 
Cc1c(S(=O)(=O)NC(C)(C)C)ccc(-c2cc(C(=O)NC3CCOCC3)c(C)n2CC2CCCCC2)c1OC(F)F [17/285] | 631 | 7.3 | 7.4 |  |  | 
Cc1c(S(=O)(=O)NC(C)(C)C)ccc(-c2cc(C(=O)NC3CCOCC3)c(C)n2CC2CCCCC2)c1C(F)(F)F [17/287] | 631 | 7.7 | 7.7 |  |  | 
Cc1c(S(=O)(=O)NC(C)(C)C)ccc(-c2cc(C(=O)NCC3(O)CCS(=O)(=O)CC3)c(C)n2CC2CCCCC2)c1Cl [17/290] | 631 | 7.6 | 7.6 |  |  | 
Cc1c(S(=O)(=O)NC(C)(C)C)ccc(-c2cc(C(=O)NCC(C)(C)O)c(C)n2CC2CCCCC2)c1Cl [17/291] | 398 | 7.6 | 7.7 |  |  | 
Cc1c(C(=O)NC2CCOCC2)cc(-c2cc(C(F)(F)F)cc(C3(C)CC3)c2)n1CC1CCCCC1 [17/297] | 126 | 7.2 | 7.4 |  |  | 
Cc1c(C(=O)N[C@H]2C[C@H](C(=O)O)C2)cc(-c2cc(Cl)cc(C(=O)NC(C)(C)C)c2)n1CC1CCCCC1 [17/298] | 2510 | 5.9 | 6.0 |  |  | 
Cc1c(C(=O)NC23CCC(C(=O)O)(CC2)CC3)cc(-c2cc(C(C)(C)O)cc(C3(C)CC3)c2)n1CC1CCCCC1 [17/302] | 1580 | 7.3 | 7.2 |  |  | 
Cc1c(C(=O)NCCC(C)(C)C(=O)O)cc(-c2cc(C(C)(C)C)cc(C(F)(F)F)c2)n1CC1CCCCC1 [17/305] |  |  |  | 2000 | 5.7/6.8/6.7 | 5.7/6.8/6.7
Cc1c(C(=O)NC2CCOCC2)cc(-c2cc(C(C)(C)O)cc(C(F)(F)F)c2)n1CC1CCCCC1 [17/306] | 1580 | 6.8 | 6.9 |  |  | 
Cc1c(C(=O)NCC(C)(C)c2nnn[nH]2)cc(-c2cc(C(C)(C)O)cc(C3(C)CC3)c2)n1CC1CCCCC1 [17/309] |  |  |  | 794 | 6.1/6.7/6.8 | 6.1/6.7/6.8
Cc1c(C(=O)N[C@H]2C[C@H](C(=O)O)C2)cc(-c2cc(C3(C)CC3)nc(C(C)(C)C)n2)n1CC1CCCCC1 [17/311] | 794 | 7.0 | 7.2 |  |  | 
Cc1c(C(=O)N[C@H]2C[C@H](C(=O)O)C2)cc(-c2cc(C(C)(C)C)nc(C3(C)CC3)n2)n1CC1CCCCC1 [17/312] | 316 | 7.2 | 7.3 |  |  | 
Cc1c(C(=O)NCC(C)(C)O)cc(-c2cc(C(C)(C)O)cc(C3(C)CC3)c2)n1CC1CCCCC1 [17/313] |  |  |  | 1000 | 6.0/6.8/6.8 | 6.0/6.8/6.8

The next lines start with results.

IC50 [1, 2] [nM] | pIC50 (FF) (RORγ; [3]) | pIC50 (REN) (RORγ; [4]) | Compound | IC50 [1] [nM] | pIC50 (FF) (RORγ) | pIC50 (REN) (RORγ)
398 | 7.2 | 7.2 | Cc1c(C(=O)N[C@H]2C[C@H](C(=O)O)C2)cc(-c2ccc(S(=O)(=O)NC(C)(C)C)c(Cl)c2Cl)n1CC1CCCCC1 [17/277] |  |  | 
3160 | < 4.7 | < 4.7 | Cc1c(C(=O)N[C@H]2C[C@H](C(=O)O)C2)cc(-c2ccc(S(=O)(=O)NC(C)(C)C)c3c2OCCO3)n1CC1CCCCC1 [17/279] |  |  | 
1000 | 7.7 | 7.7 | Cc1c(C(=O)N[C@H]2C[C@H](C(=O)O)C2)cc(-c2ccc(S(=O)(=O)NC(C)(C)C)c3c2CCCC3)n1CC1CCCCC1 [17/281] |  |  | 
1260 | 7.4 | 7.5 | Cc1c(S(=O)(=O)NC(C)(C)C)ccc(-c2cc(C(=O)NCCC(C)(C)C(=O)O)c(C)n2CC2CCCCC2)c1C(F)(F)F [17/286] |  |  | 
398 | 7.3 | 7.3 | Cc1c(C(=O)NC2CCOCC2)cc(-c2ccc(S(=O)(=O)NC(C)(C)C)c(C(F)(F)F)c2Cl)n1CC1CCCCC1 [17/288] |  |  | 
1260 | 7.1 | 7.2 | Cc1c(C(=O)NCCC(C)(C)C(=O)O)cc(-c2ccc(S(=O)(=O)NC(C)(C)C)c(C(F)(F)F)c2Cl)n1CC1CCCCC1 [17/289] |  |  | 
1260 | 7.5 | 7.4 | Cc1c(C(=O)N[C@H]2C[C@H](C(=O)O)C2)cc(-c2cc(C(C)(C)C)nc(C3(C)CC3)c2)n1CC1CCCCC1 [17/292] |  |  | 
1260 | 6.6 | 6.7 | Cc1c(C(=O)N2CC3(COCC(=O)N3)C2)cc(-c2ccc(S(=O)(=O)NC(C)(C)C)c(C(F)(F)F)c2)n1CC1CCCCC1 [17/293] |  |  | 
3160 | < 4.7 | < 4.7 | Cc1c(C(=O)N2CC3(C2)NC(=O)CNC3=O)cc(-c2ccc(S(=O)(=O)NC(C)(C)C)c(C(F)(F)F)c2)n1CC1CCCCC1 [17/294] |  |  | 
1000 | 6.6 | 6.5 | Cc1c(C(=O)NC2CNC(=O)C23CCOCC3)cc(-c2ccc(S(=O)(=O)NC(C)(C)C)c(C(F)(F)F)c2)n1CC1CCCCC1 (stereo not drawn) [17/295] |  |  | 
251 | 7.0 | 7.1 | Cc1c(C(=O)NC2CCOCC2)cc(-c2cc(Cl)cc(C3(C)CC3)c2)n1CC1CCCCC1 [17/296] |  |  | 
5010 | 7.1 | 7.5 | Cc1c(C(=O)N[C@H]2C[C@H](C(=O)O)C2)cc(-c2cc(Cl)cc(C3(C)CC3)c2)n1CC1CCCCC1 [17/299] |  |  | 
794 | 7.3 | 7.6 | Cc1c(C(=O)N[C@H]2C[C@H](C(=O)O)C2)cc(-c2cc(C(F)(F)F)cc(C3(C)CC3)c2)n1CC1CCCCC1 [17/300] |  |  | 
2000 | 7.6 | 7.6 | Cc1c(C(=O)NC23CCC(C(=O)O)(CC2)C3)cc(-c2cc(C(C)(C)O)cc(C3(C)CC3)c2)n1CC1CCCCC1 [17/301] |  |  | 
3980 | 6.3 | 6.4 | COC(C)(C)c1cc(-c2cc(C(=O)NC3CCOCC3)c(C)n2CC2CCCCC2)cc(C(C)NC(C)C)c1 (stereo not drawn) [17/303] |  |  | 
1580 | 7.2 | 7.3 | Cc1c(C(=O)N[C@H]2C[C@H](C(=O)O)C2)cc(-c2cc(C(C)(C)C)cc(C(F)(F)F)c2)n1CC1CCCCC1 [17/304] |  |  | 
3160 | 6.2 | 6.0 | Cc1c(C(=O)N[C@H]2C[C@H](C(=O)O)C2)cc(-c2cc(C(C)(C)O)cc(C(F)(F)F)c2)n1CC1CCCCC1 [17/307] |  |  | 
6310 | 6.5 | 6.4 | Cc1c(C(=O)NCCC(C)(C)C(=O)O)cc(-c2cc(C(C)(C)O)cc(C(F)(F)F)c2)n1CC1CCCCC1 [17/308] |  |  | 
1000 | 7.4 | 7.6 | Cc1c(C(=O)NCC(C)(C)c2noc(=O)[nH]2)cc(-c2cc(C(C)(C)O)cc(C3(C)CC3)c2)n1CC1CCCCC1 [17/310] |  |  | 
1000 | 7.2 | 7.1 | Cc1c(C(=O)NCC2(O)CCOCC2)cc(-c2cc(C(C)(C)O)cc(C3(C)CC3)c2)n1CC1CCCCC1 [17/314] |  |  | 
1260 | 6.5 | 6.5 | Cc1c(C(=O)NCCS(N)(=O)=O)cc(-c2cc(C(C)(C)O)cc(C3(C)CC3)c2)n1CC1CCCCC1 [17/315] |  |  | 
2510 | 6.3 | 6.3 | Cc1c(C(=O)NCCN2CCOCC2)cc(-c2cc(C(C)(C)O)cc(C3(C)CC3)c2)n1CC1CCCCC1 [17/316] |  |  | 
2510 | 6.5 | 6.5 | Cc1c(C(=O)NCCS(C)(=O)=O)cc(-c2cc(C(C)(C)O)cc(C3(C)CC3)c2)n1CC1CCCCC1 [17/317] |  |  | 
